The test system of this test is human neutrophils. Nature of the test: TNF-triggered H2O2 release (respiratory burst) by adherent human neutrophils. The class given is cell-based. As to the method: Contaminating erythrocytes were lysed by hypotonic shock for 45 seconds with 0.2% saline.
Briefly, 15,000 compounds were screened to identify specific inhibitors of TNF-triggered H2O2 release in human neutrophils. H2O2 release was measured as above except a few modifications to adapt to high throughput screening. […] Percent inhibition by each compound was calculated using the formula: […]
Briefly, 96-well flat-bottomed plates (Primaria, Falcon) were coated with 50 μl/well of FBS in 5% CO2 at 37° C. for at least 1 h and washed three times with 0.9% saline. Neutrophils (1.5×10^4) were added to triplicate wells containing 100 μl of reaction mixture (2.4 nm scopoletin, 0.5 μg horseradish peroxidase (HRP), and 1 mM NaN3) and stimulated with either buffer control, TNF (PreproTech, London, UK) or phorbol myristate acetate (PMA), each at 100 ng/ml. […] The supernatant from the H2O2 release assay with 1.5×10^4 neutrophils was used to measure degranulation using lactoferrin (LF) or myeloperoxidase (MPO) ELISA kit (Oxis International, Inc., Portland, Oreg.). Spontaneous cell death from the same supernatant was measured using Cytotoxicity Detection Kit (Roche Molecular Biochemicals, Nutley, N.J.). The total cell content of LF, MPO, and lactate dehydrogenase (LDH) was determined after lysing cells with 1% Triton X100. LDH is a cytosolic enzyme whose release indicates cell lysis, such that high release of LF or MPO in the face of low release of LDH is taken as a measure of degranulation.

Usually IC50 stands for the concentration at which inhibition is half-maximal. As to `CC1=NN(c2ccccc2)C(=O)/C1=C\Nc1cccc2ccc(C)nc12` [Comp II′], the IC50 (Homo sapiens, Neutrophil, 1.5 h, TNF 100 ng/ml, H2O2 release at 90 min, read-out: IC50, TNF triggered H2O2 release) is 0.022 µM. Besides, the “Concentration that consistently yielded over 95% inhibition on TNF triggered RB” value (empirically decided for each compound) was found to be 1 µM.
